Measurements as given in publication PMC2946430 (Biosensors & bioelectronics, 2010).

Columns and labels:
[1] = tested on: phosphorylation of MAPK and Akt in H1650-ER1, H1650-ER2 and H1650-ER4 cells; assay: Western blot of MAPK and Akt phosphorylation, resistant clones; format: cell-based, human; conditions: for suppression of p-AKT and p-MAPK levels: resistant H1650-ER1 cells compared to parent H1650 cells
[2] = molecular target: EGFR kinase activity in H1650-ER1, H1650-ER2, H1650-ER4 cell lysates (Homo sapiens, UniProt P00533, DEL746-750)
[3] = tested on: erlotinib-resistant H1650 clones; assay: cells; conditions: Homo sapiens, NCI-H1650, 48 h, read-out: IC50, cell proliferation/viability
H1650 cells [4] = assay: cells; conditions: Homo sapiens, NCI-H1650, 48 h, read-out: IC50, cell proliferation/viability
H1650 cells [5] = assay: Clonogenic assay, parental H1650; format: cell-based, human; conditions: parental H1650, continuous exposure 10 μM and 50 μM, 15 days
[6] = tested on: EGFR kinase activity in H23 cell lysate (wild type EGFR); assay: Hydrogel-based peptide array kinase assay, H23 cell lysate; format: biochemical, human; conditions: 0-50 μM, compared with H1650
[7] = tested on: phosphorylation of MAPK and Akt in H1650 cells; assay: Western blot of MAPK and Akt phosphorylation, parental H1650; format: cell-based, human

SMILES | suppression of p-AKT and p-MAPK levels [1] | IC50 [2] | IC50 [3] | MAPK phosphorylation ([1]; H1650-ER1, H1650-ER2, H1650-ER4, 0, 1 and 10 μM for 5 hr) | Akt phosphorylation ([1]; resistant clones) | IC50 (H1650 cells [4]) | colony formation (H1650 cells [5]) | effect on substrate phosphorylation by H23 lysate [6] | MAPK phosphorylation ([7]; parental H1650, 0, 1 and 10 μM for 5 hr, Western blot) | Akt phosphorylation ([7]; parental H1650, Western blot)
CC#CC(=O)Nc1ccc2ncnc(Nc3cccc(Br)c3)c2c1 [CL-387,785] | persistent activity |  |  |  |  |  |  |  |  | 
C[C@@H](Nc1ncnc2[nH]c(-c3ccc(O)cc3)cc12)c1ccccc1 [PKI-166] |  | > 10 µM |  |  |  |  |  |  |  | 
C#Cc1cccc(Nc2ncnc3cc(OCCOC)c(OCCOC)cc23)c1 [erlotinib] | reduced efficacy |  | > 20 µM | maintained | did not affect | ~2400 nM | very few colonies | much less effective | attenuation in MAPK phosphorylation | did not affect
